The values below are quoted from earlier work in patent US5472628A, “Liquid detergents with an aryl acid for inhibition of proteolytic enzyme” (The Procter & Gamble Company, priority 1994, dated 1995).

pKi: −log10 of the molar value.

In the data set the target is subtilisin. Particulars: quoted in the description, read-out: Ki (inhibition constants of boronic acids for subtilisin).

Take `OB(O)c1ccc(Br)cc1` [4-bromobenzene boronic acid]: the pKi (commonly the Ki on a negative log10 scale, so that one unit is a factor of ten) is 5.00.
